Where only a bound is given, the exact number is not on record here.

We go through 18 compounds from ChEMBL document CHEMBL1123235, “Cholecystokinin antagonists. Synthesis of asperlicin analogues with improved potency and water solubility” (J Med Chem, 1986).

The test addresses T1, Cholecystokinin receptor (Rattus norvegicus, UniProt P30551+P30553).
T1 sequence (P30551 whole entry): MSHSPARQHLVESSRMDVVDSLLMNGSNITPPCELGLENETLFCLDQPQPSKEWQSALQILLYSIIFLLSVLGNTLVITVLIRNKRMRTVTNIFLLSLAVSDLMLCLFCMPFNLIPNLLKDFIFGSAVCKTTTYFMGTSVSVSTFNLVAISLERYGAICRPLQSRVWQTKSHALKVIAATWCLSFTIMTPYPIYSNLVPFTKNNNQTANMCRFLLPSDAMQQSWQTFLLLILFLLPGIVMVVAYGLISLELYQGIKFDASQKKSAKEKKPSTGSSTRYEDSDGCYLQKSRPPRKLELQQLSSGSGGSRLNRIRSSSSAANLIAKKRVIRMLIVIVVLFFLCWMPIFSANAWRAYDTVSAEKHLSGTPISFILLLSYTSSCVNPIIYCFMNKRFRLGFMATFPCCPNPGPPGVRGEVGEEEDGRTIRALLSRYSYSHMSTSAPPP
T1 sequence (P30553 whole entry): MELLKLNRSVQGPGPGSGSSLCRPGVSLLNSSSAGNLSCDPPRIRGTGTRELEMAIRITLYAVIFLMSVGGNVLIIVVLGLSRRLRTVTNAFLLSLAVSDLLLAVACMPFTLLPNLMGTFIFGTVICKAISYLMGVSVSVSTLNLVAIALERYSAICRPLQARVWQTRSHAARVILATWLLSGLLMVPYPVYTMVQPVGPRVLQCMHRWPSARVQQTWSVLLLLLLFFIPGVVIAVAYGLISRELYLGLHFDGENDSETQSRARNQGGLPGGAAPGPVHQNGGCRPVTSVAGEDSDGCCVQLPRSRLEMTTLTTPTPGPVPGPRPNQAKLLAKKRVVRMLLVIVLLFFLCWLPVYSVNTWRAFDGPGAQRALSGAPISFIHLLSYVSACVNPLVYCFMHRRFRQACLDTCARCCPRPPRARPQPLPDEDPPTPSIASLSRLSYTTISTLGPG
Put plainly: Inhibition of [125I]CCK binding to rat pancreatic Cholecystokinin receptor. The format is protein assay.

`CC(C)C[C@H]1C(=O)N2c3ccccc3[C@@](O)(C[C@@H]3NC(=O)c4ccccc4-n4c3nc3ccccc3c4=O)[C@H]2N1C(=O)C(Cc1ccc(OCc2ccccc2)cc1)NC(=O)OC(C)(C)C` (stereo partly drawn) registered an IC50 of more than 100 µM.

`CC(C)C[C@H]1C(=O)N2c3ccccc3[C@@](O)(C[C@@H]3NC(=O)c4ccccc4-n4c3nc3ccccc3c4=O)[C@H]2N1C(=O)OCc1ccccc1`: the IC50 worked out at 5 µM.

`CC(C)C[C@@H]1N[C@H]2N(C1=O)c1ccccc1[C@]2(C[C@@H]1NC(=O)c2ccccc2-n2c1nc1ccccc1c2=O)OC(=O)CCC(=O)O` returned an IC50 of 85 µM.

On to `CCN1[C@H]2N(C(=O)[C@@H]1CC(C)C)c1ccccc1[C@@]2(O)C[C@@H]1NC(=O)c2ccccc2N2C(=O)c3ccccc3NC12` (stereo partly drawn), for which the IC50 is 0.4 µM. This IC50 lies about 210-fold lower than the previous one.

`CC(C)C[C@H]1C(=O)N2c3ccccc3[C@](C[C@@H]3NC(=O)c4ccccc4-n4c3nc3ccccc3c4=O)(OC(=O)CCC(=O)OCc3ccccc3)[C@H]2N1C(=O)OCc1ccccc1`: the IC50 is 100 µM. Compared with the last compound, the IC50 is about 250-fold higher.

For the compound `CC(=O)N1[C@H]2N(C(=O)[C@@H]1CC(C)C)c1ccccc1[C@@]2(O)C[C@@H]1NC(=O)c2ccccc2-n2c1nc1ccccc1c2=O`, the IC50 was determined as 22 µM.

With `CC(C)C[C@H]1C(=O)N2c3ccccc3[C@@](O)(C[C@@H]3NC(=O)c4ccccc4-n4c3nc3ccccc3c4=O)[C@H]2N1C(=O)C(CCCCNC(=O)OCc1ccccc1)NC(=O)OC(C)(C)C` (stereo partly drawn), the IC50 is more than 100 µM.

`CC(C)C[C@H]1C(=O)N2c3ccccc3[C@@](O)(C[C@@H]3NC(=O)c4ccccc4-n4c3nc3ccccc3c4=O)[C@H]2N1C(=O)CCC(=O)O` gave an IC50 of more than 100 µM.

`CC(C)C[C@H]1C(=O)N2c3ccccc3[C@@](O)(C[C@@H]3NC(=O)c4ccccc4-n4c3nc3ccccc3c4=O)[C@H]2N1C(=O)C(CCCNC(=O)OCc1ccccc1)NC(=O)OC(C)(C)C` (stereo partly drawn) gave an IC50 of 4.3 µM. This lies in the single-digit micromolar range.

For `CC(C)C[C@H]1C(=O)N2c3ccccc3[C@@](O)(C[C@@H]3NC(=O)c4ccccc4N4C(=O)c5ccccc5NC34)[C@H]2N1C(=O)CCC(=O)O` (stereo partly drawn), the IC50 was 4.3 µM.

`CC(C)C[C@H]1C(=O)N2c3ccccc3[C@@](O)(C[C@@H]3NC(=O)c4ccccc4-n4c3nc3ccccc3c4=O)[C@H]2N1C(=O)C(N)CCCCN.Cl` (stereo partly drawn) returned an IC50 of 2.5 µM. Against the preceding compound, the IC50 is about 1.7-fold lower.

On to `CC(C)C[C@H]1C(=O)N2c3ccccc3[C@](C[C@@H]3NC(=O)c4ccccc4N4C(=O)c5ccccc5NC34)(OC(=O)CCC(=O)OCc3ccccc3)[C@H]2N1C(=O)OCc1ccccc1` (stereo partly drawn), for which the 50% inhibitory concentration (IC50) came to 100 µM.

Turning to `CC(C)C[C@H]1C(=O)N2c3ccccc3[C@@](O)(C[C@@H]3NC(=O)c4ccccc4N4C(=O)c5ccccc5NC34)[C@H]2N1C(=O)CCC(=O)[O-].[Na+]` (stereo partly drawn), the IC50 is 1 µM.

`CC(C)C[C@H]1C(=O)N2c3ccccc3[C@@](O)(C[C@@H]3NC(=O)c4ccccc4-n4c3nc3ccccc3c4=O)[C@H]2N1C(=O)C(Cc1ccc(O)cc1)NC(=O)OC(C)(C)C` (stereo partly drawn) displayed a half-maximal inhibitory concentration (IC50) of 46 µM.

For the compound `CC(C)C[C@@H]1N[C@H]2N(C1=O)c1ccccc1[C@@]2(O)C[C@@H]1NC(=O)c2ccccc2N2C(=O)c3ccccc3NC12` (stereo partly drawn), the IC50 was found to be 0.2 µM.

In the case of `CC(C)C[C@H]1C(=O)N2c3ccccc3[C@@](O)(C[C@@H]3NC(=O)c4ccccc4N4C(=O)c5ccccc5NC34)[C@H]2N1C(=O)C(CCCNC(=O)OCc1ccccc1)NC(=O)OC(C)(C)C` (stereo partly drawn), the IC50 turned out to be 1.3 µM.

Compound `CC(C)C[C@H]1C(=O)N2c3ccccc3[C@@](O)(C[C@@H]3NC(=O)c4ccccc4N4C(=O)c5ccccc5NC34)[C@H]2N1CCCc1ccccc1` (stereo partly drawn) had an IC50 of 0.2 µM.

Compound `CC(C)C[C@@H]1N[C@H]2N(C1=O)c1ccccc1[C@@]2(O)C[C@@H]1NC(=O)c2ccccc2-n2c1nc1ccccc1c2=O` [ASPERLICIN] returned an IC50 of […].
